Active and inactive are the calls of the source. No rule for the calls is given here.
These compounds were tested against Trace amine-associated receptor 1 (Homo sapiens) (UniProt Q96RJ0) (assay: TAAR1 agonists, concentration-response, dose response, cell-based, fluorescence, MedChem round 1 (AID 743491)). Details: cells expressing human TAAR1, fluorescence agonist read-out.
Sequence of Trace amine-associated receptor 1 (Homo sapiens) (Q96RJ0 whole entry, looked up): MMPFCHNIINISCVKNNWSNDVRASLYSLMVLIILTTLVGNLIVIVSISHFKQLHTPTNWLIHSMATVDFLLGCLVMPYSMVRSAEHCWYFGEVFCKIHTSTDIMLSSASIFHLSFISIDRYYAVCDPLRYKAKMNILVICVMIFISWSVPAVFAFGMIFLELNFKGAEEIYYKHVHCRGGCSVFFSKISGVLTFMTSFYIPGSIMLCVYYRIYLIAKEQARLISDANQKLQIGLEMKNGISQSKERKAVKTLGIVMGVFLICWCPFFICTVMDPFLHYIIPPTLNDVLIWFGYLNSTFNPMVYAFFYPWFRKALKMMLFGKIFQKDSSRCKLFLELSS

| SMILES | EC50 |
| --- | --- |
| CC(CN1CCC(c2ccccc2)C1)C(=O)c1ccc2c(c1)OCCO2 (stereo unspecified) | inactive |
| O=C(CCN1CCC(O)(c2ccc(F)cc2)C1)c1ccc2c(c1)OCCO2 (stereo unspecified) | > 29900 nM (inactive) |
| O=C(CCN1C[C@@H](C(=O)O)[C@H](c2ccccc2)C1)NCc1cccs1 | > 29900 nM (inactive) |
| CC(CN1CCCC1Cc1ccccc1)C(=O)c1ccc2c(c1)OCCO2 (stereo unspecified) | 678 nM |
| NC(=O)CCN1C[C@H](c2ccccc2)[C@@H]2[C@H]1C1CCN2CC1 | > 29900 nM (inactive) |
| Cc1ccc(C(=O)CCN2CCC(c3ccccc3)C2)cc1 (stereo unspecified) | 114 nM |
| O=C(CCN1CCC(c2ccccc2)C1)c1ccccc1 (stereo unspecified) | 174 nM |
| O=C(CCN1CCC(O)(c2ccccc2)C1)c1ccc2c(c1)OCCO2 (stereo unspecified) | > 29900 nM (inactive) |
| O=C(CCN1C[C@@H](C(=O)O)[C@H](c2cccc(F)c2)C1)NC1CC1 | > 29900 nM (inactive) |
| CC1CN(CCC(=O)c2ccc3c(c2)OCCO3)CC1c1ccccc1 (stereo unspecified) | 378 nM |
| O=C(CCN1C[C@@H](C(=O)O)[C@H](c2ccccc2)C1)NC1CCCC1 | > 29900 nM (inactive) |

Reference: PubChem BioAssay AID743491 (The Scripps Research Institute Molecular Screening Center, 2014)
